Series [1] deals with B. subtilis bacterial spores. Put plainly: Efficacy against bacterial endospores (FIG. 1). The series is classed as cell-based. How it is done:
The NCS biocide solution included about 1% NCS and was buffered at a pH of about 4. The NBS biocide solution included about 1% NBS and was buffered at pH about 3. […] In the case of NCS, a total kill corresponding to a 6 log reduction occurred over a period of approximately 30 minutes. In the case of NBS, a total kill corresponding to a 6 log reduction occurred over a period of approximately 60 minutes.

The test system of another series is M. terrae mycobacteria. Put plainly: Efficacy against mycobacteria (FIG. 2). The series is classed as cell-based. The note with it: for time to total kill of mycobacteria: pH 7.4. How it is done:
The NCS biocide solution included about 1% NCS, was buffered at a pH of about 4 and was tested at 20° C. The NBS biocide solution included about 1% NBS, was buffered at a pH of about 3 and was tested at 20° C. Each solution produced a total kill corresponding to a 6 log reduction of the mycobacteria.

The nature of series [2]: Stability of the biocide solution over time, active ingredient by iodometric titration (FIG. 3). The series is classed as physicochemical. From the text: The NBS biocide solution included about 1.0% NBS, 0.19% surfactant L-44 and was at a pH of about 3. The NCS biocide solution included about 1.0% NCS, 0.19% surfactant and was at a pH of about 3.
Setting [3] is: about 1% NBS, buffered at pH about 3, 20° C.
The mark [4] stands for this setting: about 1% NCS, buffered at pH about 4, 20° C.

For `O=C1CCC(=O)N1Br` [NBS, N-bromosuccinimide], in series [1] (setting [3]), the “period to total kill (6 log reduction)” value is “approximately 60 minutes” and the “total kill, log reduction in the bacteria” value is 6 log. For the same molecule, in the series with M. terrae mycobacteria (setting [3]), the “time to total kill” value is “about 30 seconds” and the “total kill, log reduction of the mycobacteria” value is listed as 6 log. The “time to total kill of mycobacteria” value in the series with M. terrae mycobacteria is listed as “about 175 seconds”. Also, the stability over time entry in series [2] (about 1.0% NBS, 0.19% surfactant L-44, pH about 3, increasing amounts of succinimide added, best at 9.0%) is on record as “improved stability over time”.
Regarding `O=C1CCC(=O)N1Cl` [NCS, N-chlorosuccinimide], in series [1] (setting [4]), the “period to total kill (6 log reduction)” value was “approximately 30 minutes” and the “total kill, log reduction in the bacteria” value is listed as 6 log. Also, in the series with M. terrae mycobacteria (setting [4]), the “time to total kill” value is recorded as “about 30 seconds” and the “total kill, log reduction of the mycobacteria” value was determined as 6 log. In the series with M. terrae mycobacteria, the “time to total kill of mycobacteria” value is “about 90 seconds”. Also, the “stability over time compared to NCS alone” value in series [2] (about 1.0% NCS, 0.19% surfactant, pH about 3, 4.8% succinimide added) is listed as “improved stability”.
